From article PMC12431657, “Discovery and mechanistic insights of dibenzoylmethane as a broad spectrum inhibitor of coronavirus” (PLOS Pathogens, 2025)
Several values for one entry are separate records, joined by “and”; a condition that tells them apart may be missing. Equal entries are not always repeated. Where two headings read alike, the source gives them in different places.

Key:
HCoV-NL63 = assay: Antiviral activity in vitro, HCoV-NL63; format: cell-based; details: Human coronavirus NL63, read-out: EC50 HCoV-NL63
HCoV-OC43 [1] = assay: Antiviral activity in vitro, qRT-PCR, HCoV-OC43 in RD cells; format: cell-based; details: for EC50 (OC43, RD): inhibition at the concentration: replicates
caspase-6 [2] = format: cell-based
HCoV-OC43 [3] = assay: HCoV-OC43 nucleocapsid protein and caspase-6 in infected cells (Western blot); format: cell-based; details: cells pretreated with serially diluted compound
HCoV-OC43 [4] = assay: Cytokine gene expression in brains and spinal cords of infected mice; format: in vivo, BALB/c suckling mice; details: for CCL2 gene expression / CXCL10 gene expression / IL1B gene expression / IL6 gene expression / TNF gene expression: one value per animal
Huh-7 cells = format: cell-based
[5] = Metabolic stability in mouse liver microsomes; format: in vitro ADME; details: average, read-out: T1/2 of metabolism
Procedure: Thus, a pharmacokinetic study was performed for DBM in Sprague-Dawley (SD) rats. Following oral administration of menstruum or DBM at 200 mpk, blood samples from the rats were collected at 2 min, 5 min, 15 min, 30 min, 1 h, 2 h, 4 h, 8 h, and 24 h posttreatment. The concentration of DBM in the plasma was determined by liquid chromatography with tandem mass spectrometry (LC-MS/MS). The minimum effective concentration (MEC) line in the graph represents the EC95 value of DBM (Fig 3C). […] To analyse the metabolic stability of DBM, we incubated human and mouse liver microsomes with DBM. The T1/2 of metabolism was an average of 13.92 min in human liver microsomes and 4.84 min in mouse liver microsomes.

caspase-6 [6] = target: T1, caspase-6 (Homo sapiens, UniProt P55212); format: cell-based
T1 construct: endogenous in cells
T1 sequence (P55212 24-293): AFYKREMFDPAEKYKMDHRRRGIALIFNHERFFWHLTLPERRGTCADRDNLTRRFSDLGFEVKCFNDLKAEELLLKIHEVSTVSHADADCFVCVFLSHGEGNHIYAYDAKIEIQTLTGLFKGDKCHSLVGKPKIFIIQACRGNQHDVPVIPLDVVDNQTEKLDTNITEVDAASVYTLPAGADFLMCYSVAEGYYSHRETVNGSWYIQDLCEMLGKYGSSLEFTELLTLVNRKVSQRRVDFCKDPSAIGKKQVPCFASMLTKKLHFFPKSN

mammary tumorigenesis = system: mammary tumorigenesis; design: method as in PMID 11403916; details: dietary DBM, mice; cited from earlier work
HCoV-OC43 [7] = assay: Antiviral activity in vitro, qRT-PCR, HCoV-OC43 in Huh-7 cells; format: cell-based; details: for HCoV-OC43, Huh-7: inhibition at the concentration (Fig2B): replicates
[8] = 1% DBM in the diet, mice; cited from earlier work
enterovirus EV71 = format: cell-based
HCoV-OC43 [9] = assay: microbe, parasite or virus in culture; format: cell-based
HCoV-OC43 [10] = format: cell-based

With `O=C(CC(=O)c1ccccc1)c1ccccc1` [DBM, dibenzoylmethane] the EC50 (HCoV-NL63) was 11700 nM, the EC50 (HCoV-OC43 [1]; Betacoronavirus 1, OC43, RD, 24 h, read-out: EC50 HCoV-OC43 (RD)) was 350 nM and the “Viral RNA copies (Fig6B)” value (HCoV-OC43 [1]; OC43, concentration 4) was 7.43E+03 and 9.55E+03 and 9.54E+03. The “Viral RNA copies (Fig6B)” value (HCoV-OC43 [1]; OC43, concentration 20) was 3.88E+03 and 6.38E+03 and 7.34E+03, the “EC50 (OC43, RD): inhibition at the concentration” value (“EC50 (OC43, RD): inhibition” for short) (HCoV-OC43 [1]; conc. 0.1 (unit not given)) was -75.5 and -76.6 and -100.8 and the “EC50 (OC43, RD): inhibition” value (HCoV-OC43 [1]; conc. 0.2 (unit not given)) was 23.1 and 21.4 and 22.1. The “EC50 (OC43, RD): inhibition” value (HCoV-OC43 [1]; conc. 0.7 (unit not given)) was 88.5 and 91.5 and 92, the “EC50 (OC43, RD): inhibition” value (HCoV-OC43 [1]; conc. 2.2 (unit not given)) was 99.6 and the “EC50 (OC43, RD): inhibition” value (HCoV-OC43 [1]; conc. 6.7 (unit not given)) was 99.9. The “EC50 (OC43, RD): inhibition” value (HCoV-OC43 [1]; conc. 20 (unit not given)) was 99.8, the “Caspase-6/CASP6 level relative to DMSO (Fig5I)” value (caspase-6 [2]) was 75.9 and 67.7 and 60.2 and 63.8 and the “relative level of CASP6 mRNA” value (caspase-6 [2]) was “decreased”. The “virus replication (nucleocapsid protein, Western blot)” value (HCoV-OC43 [3]) was “inhibited virus replication”, the CCL2 gene expression (HCoV-OC43 [4]; BRAIN, DBM 100 mpk) was 1.51 and 1.54 and 1.00 and 1.20 and 1.62 and 1.74 and the CXCL10 gene expression (HCoV-OC43 [4]; BRAIN, DBM 100 mpk) was 2.90 and 3.33 (2×) and 2.35 and 2.81 and 3.27. For the same molecule, the IL1B gene expression (HCoV-OC43 [4]; BRAIN, DBM 100 mpk) was 1.23 and 1.14 (2×) and 0.87 and 0.89 and 1.66, the IL6 gene expression (HCoV-OC43 [4]; BRAIN, DBM 100 mpk) was 0.95 and 1.15 and 0.67 and 0.94 and 1.52 and 1.33 and the TNF gene expression (HCoV-OC43 [4]; BRAIN, DBM 100 mpk) was 1.36 (2×) and 0.92 and 0.88 and 1.72 and 1.28. The CCL2 gene expression (HCoV-OC43 [4]; BRAIN, DBM 200 mpk) was 1.46 and -0.88 and 0.68 and 1.08 and 1.88, the CXCL10 gene expression (HCoV-OC43 [4]; BRAIN, DBM 200 mpk) was 3.15 and -0.32 and 2.05 and 2.44 and 3.30 and the IL1B gene expression (HCoV-OC43 [4]; BRAIN, DBM 200 mpk) was 1.27 and -1.00 and 0.43 and 0.66 and 1.46. The IL6 gene expression (HCoV-OC43 [4]; BRAIN, DBM 200 mpk) was 1.26 and -0.71 and 0.30 and 0.34 and 1.23, the TNF gene expression (HCoV-OC43 [4]; BRAIN, DBM 200 mpk) was 1.14 and -1.10 and 0.49 and 0.84 and 1.31 and the CCL2 gene expression (HCoV-OC43 [4]; BRAIN, DBM 500 mpk) was 1.19 and 0.29 and 0.89 and 1.43. The CXCL10 gene expression (HCoV-OC43 [4]; BRAIN, DBM 500 mpk) was 2.39 and 1.30 and 1.07 and 2.91, the IL1B gene expression (HCoV-OC43 [4]; BRAIN, DBM 500 mpk) was 1.46 and 0.54 and 0.85 and 1.71 and the IL6 gene expression (HCoV-OC43 [4]; BRAIN, DBM 500 mpk) was 0.93 and 0.71 and 0.92 and 1.17. For the same molecule, the TNF gene expression (HCoV-OC43 [4]; BRAIN, DBM 500 mpk) was 1.05 and 0.22 and 0.74 and 1.31, the “inflammation (cytokine gene expression) in the brain and spinal cord” value (HCoV-OC43 [4]; CCL2, CXCL10, IL-1β, IL-6, TNF-α, 5 dpi) was “dramatically reduced inflammation” and the CCL2 gene expression (HCoV-OC43 [4]; SPINAL CORD, DBM 100 mpk) was 0.10 and -0.50 and -0.53 and -0.21 and -0.06 and -0.89. The CXCL10 gene expression (HCoV-OC43 [4]; SPINAL CORD, DBM 100 mpk) was 2.03 and 1.48 and 0.34 and 0.55 and 1.02 and 0.66, the IL1B gene expression (HCoV-OC43 [4]; SPINAL CORD, DBM 100 mpk) was -0.76 and -1.28 and -0.98 and -0.97 and -0.64 and -1.78 and the IL6 gene expression (HCoV-OC43 [4]; SPINAL CORD, DBM 100 mpk) was 1.39 and -0.72 and 0.41 and 1.02 and 0.87 and 0.47. The TNF gene expression (HCoV-OC43 [4]; SPINAL CORD, DBM 100 mpk) was 0.47 and -0.10 and -0.18 and 0.26 and 0.80 and -0.63, the CCL2 gene expression (HCoV-OC43 [4]; SPINAL CORD, DBM 200 mpk) was -0.12 and -1.42 and -0.38 and -0.65 and 0.03 and the CXCL10 gene expression (HCoV-OC43 [4]; SPINAL CORD, DBM 200 mpk) was 1.47 and -1.58 and 0.55 and 0.23 and 1.42. The IL1B gene expression (HCoV-OC43 [4]; SPINAL CORD, DBM 200 mpk) was -0.83 and -1.94 and -0.93 and -0.47 and -0.26, the IL6 gene expression (HCoV-OC43 [4]; SPINAL CORD, DBM 200 mpk) was 0.59 and -0.46 and 0.79 and 0.02 and 0.49 and the TNF gene expression (HCoV-OC43 [4]; SPINAL CORD, DBM 200 mpk) was -0.40 and -0.33 and -1.12 and -0.23 and 0.63. The CCL2 gene expression (HCoV-OC43 [4]; SPINAL CORD, DBM 500 mpk) was 2.46 and 1.15 and -0.63 and 0.95, the CXCL10 gene expression (HCoV-OC43 [4]; SPINAL CORD, DBM 500 mpk) was 3.10 and 2.34 and 0.15 and 1.92 and the IL1B gene expression (HCoV-OC43 [4]; SPINAL CORD, DBM 500 mpk) was 2.44 and 0.22 and -1.51 and 0.43. The IL6 gene expression (HCoV-OC43 [4]; SPINAL CORD, DBM 500 mpk) was 3.07 and 2.18 and -0.81 and 1.64, the TNF gene expression (HCoV-OC43 [4]; SPINAL CORD, DBM 500 mpk) was 3.77 and 1.80 and -0.57 and 1.44 and the treated/untreated (Huh-7 cells) was 1.279 and 1.276 and 1.31 and 1.204 and 1.484. For the same molecule, the half-life [5] was 4.84 min, the “activity of caspase-6 in treated cells” value (caspase-6 [6]) was “decrease in the activity of caspase-6” and the “Caspase-6 activity (Fig5J)” value (caspase-6 [6]; time point 0, replicates) was 8.2 and 8.1 and 9.0. The “Caspase-6 activity (Fig5J)” value (caspase-6 [6]; time point 2, replicates) was 11.9 and 12.2 and 11.5, the “Caspase-6 activity (Fig5J)” value (caspase-6 [6]; time point 4, replicates) was 16.7 and 15.6 and 16.4 and the “Caspase-6 activity (Fig5J)” value (caspase-6 [6]; time point 6, replicates) was 12.2 and 13.5 and 13.6. The “Caspase-6 activity (Fig5J)” value (caspase-6 [6]; time point 8, replicates) was 13.0 and 12.4 and 9.9, the “reduction of tumor incidence” value (mammary tumorigenesis) was 97% and the EC50 (HCoV-OC43 [7]; Betacoronavirus 1, OC43, Huh-7, 24 h, read-out: EC50 HCoV-OC43 (Huh-7)) was 90 nM. For the same molecule, the “HCoV-OC43, Huh-7: inhibition at the concentration (Fig2B)” value (“HCoV-OC43, Huh-7: inhibition” below) (HCoV-OC43 [7]; conc. 0.1 (unit not given)) was 51.3 and 53.7 and 47.2, the “HCoV-OC43, Huh-7: inhibition” value (HCoV-OC43 [7]; conc. 0.2 (unit not given)) was 64.6 and 65.3 and 60.0 and the “HCoV-OC43, Huh-7: inhibition” value (HCoV-OC43 [7]; conc. 0.7 (unit not given)) was 95.4 and 95.1 and 94.4. The “HCoV-OC43, Huh-7: inhibition” value (HCoV-OC43 [7]; conc. 2.2 (unit not given)) was 98.2 (2×) and 98.0, the “HCoV-OC43, Huh-7: inhibition” value (HCoV-OC43 [7]; conc. 6.7 (unit not given)) was 98.4 and the “HCoV-OC43, Huh-7: inhibition” value (HCoV-OC43 [7]; conc. 20.0 (unit not given)) was 98.3 (2×) and 98.5. For the same molecule, the “safety of feeding in the diet” value [8] was “safe”, the “antiviral activity against EV71” value (enterovirus EV71) was “no antiviral activity” and the “resistance of the virus after consecutive passages” value (HCoV-OC43 [9]; 17 consecutive passages in the presence of DBM) was “did not develop significant resistance”. The EC50 (HCoV-OC43 [9]; Betacoronavirus 1, OC43, read-out: EC50 of DBM against HCoV-OC43 passaged with DBM) was 850 nM, the EC50 (HCoV-OC43 [9]; Betacoronavirus 1, OC43, read-out: EC50 of DBM against HCoV-OC43 passaged with DMSO) was 570 nM and the viral inhibition (HCoV-OC43 [9]; DBM (virus passaged with DBM), concentration 1.7) was 93.4 and 85.2. The viral inhibition (HCoV-OC43 [9]; DBM (virus passaged with DBM), concentration 5.0) was 99.5, the viral inhibition (HCoV-OC43 [9]; column head DMSO (virus passaged with DMSO), concentration 5.0) was 100.0 and the “antiviral activity in CASP6 knockout cell pools” value (HCoV-OC43 [10]; RD cells) was “decreased”. The “Viral inhibition (Fig5K)” value (HCoV-OC43 [10]; concentration 2, RD-CASP6 KO cells) was 35.0 and 37.4 and 35.2, the “Viral inhibition (Fig5K)” value (HCoV-OC43 [10]; concentration 2, RD-Scramble cells) was 87.9 and 90.6 and 92.3 and the “Viral inhibition (Fig5K)” value (HCoV-OC43 [10]; concentration 20, RD-Scramble cells) was 81.0 and 81.9 and 83.3.
